SMILES strings stand for the structures.

This experiment addresses T1, Human pyruvate kinase R (PKR) (Homo sapiens, UniProt P30613).
T1 construct: Human pyruvate kinase R (PKR), residues 14-574; 6x-His (N, cleaved yes); 8x-Arg (N, cleaved yes); SUMO (N, cleaved yes); host or cells: E. coli
Put plainly: Biochemical assay for activation of pyruvate kinase R (Kinase-Glo luminescence, ATP generation). The following applies: for AC50: 0.1 nM PKR, 2 mM FBP, 0.3 mM ADP, 0.1 mM PEP; for PKR % activation: maximal activation level relative to the activation level achieved by AG-348 @ 10 μM. As to the method:
Proteins were translated as fusions with 6×-His, 8×-Arg, and SUMO at the N-terminus. […] All proteins were cloned, expressed in E. coli, and purified using similar protocols. Cells were grown at 30° C. in Luria-Bertani broth supplemented with 0.4% glucose to OD600=0.8 and induced with 0.4 mM IPTG at 16° C. for 18 hours. Cells were harvested by centrifugation, resuspended in 50 mM potassium phosphate pH 8.0, 500 mM NaCl, 25 mM imidazole pH 8.0, and 3 mM β-mercaptoethanol. Cells were lysed using a LM20 microfluidizer from Microfluidics (Westwood, Mass.). The crude lysate was immediately supplemented with 0.2 mM phenylmethylsulfonyl fluoride (PMSF) and centrifuged at 20,000 g for 20 minutes. The soluble fraction was subsequently incubated with 2 mL Ni-NTA (GE Healthcare) per 1,000 ODs for 1 hour at 4° C. Following incubation with the Ni-NTA resin, lysate was removed by pelleting resin at 2,500 g for 3 minutes and washed 3 times with 9 bed volumes of 50 mM potassium phosphate pH 8.0, 500 mM NaCl, 25 mM imidazole, and 3 mM β-mercaptoethanol. Following the batch wash Ni-NTA resin was loaded onto a gravity column and His-tagged protein was eluted with 6 bed volumes of 10 mM Tris/HCl pH 8.0, 200 mM NaCl, 500 mM imidazole, and 3 mM β-mercaptoethanol. Eluted protein was dialyzed overnight against 10 mM Tris/HCl pH 8.0, 200 mM NaCl, and 1 mM DTT and the 6×-His-8×-Arg-SUMO-tag was cleaved using a 20:1 molar ratio of protein:3C protease. The protein was purified by anion exchange chromatography on a HiTrapQ or MonoQ 10/100 GL column (GE Healthcare) via a linear NaCl gradient and twice by size exclusion chromatography using a Superdex S200 26/60 column (GE Healthcare) run in 10 mM Tris/HCl pH 8.0, 200 mM NaCl, 10 mM MgCl2, 1 mM DTT. Proteins were concentrated to ˜12 mg/mL for crystallization and flash frozen for storage.
Biochemical Assay for Activation of Pyruvate Kinase R
Activation of pyruvate kinase R (PKR) and pyruvate kinase M2 (PKM2) were measured using a luminescence based measurement of ATP generation and the Kinase-Glo luminescent kinase reagent kit.
For orientation: In Kinase-Glo more light means more ATP remaining.

T1 sequence (P30613 14-574): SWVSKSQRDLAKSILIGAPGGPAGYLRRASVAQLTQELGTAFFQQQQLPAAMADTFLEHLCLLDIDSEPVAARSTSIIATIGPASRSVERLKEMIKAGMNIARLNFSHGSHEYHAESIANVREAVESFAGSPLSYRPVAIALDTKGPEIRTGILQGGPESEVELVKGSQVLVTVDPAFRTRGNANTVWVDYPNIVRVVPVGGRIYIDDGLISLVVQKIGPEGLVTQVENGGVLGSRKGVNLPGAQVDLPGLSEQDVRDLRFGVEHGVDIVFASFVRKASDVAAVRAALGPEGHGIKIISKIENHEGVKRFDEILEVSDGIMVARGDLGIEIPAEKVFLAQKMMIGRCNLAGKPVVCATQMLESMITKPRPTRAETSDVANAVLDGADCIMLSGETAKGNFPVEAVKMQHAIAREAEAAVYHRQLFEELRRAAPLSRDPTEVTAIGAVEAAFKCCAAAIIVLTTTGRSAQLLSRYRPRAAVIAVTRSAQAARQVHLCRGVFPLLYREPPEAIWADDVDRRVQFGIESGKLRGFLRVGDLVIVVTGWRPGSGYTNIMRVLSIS

One may read the AC50 as the midpoint of the concentration-response curve, whichever way the signal moves. As for `O=C(C(CO)c1ccncc1)N1Cc2cn(S(=O)(=O)c3ccc4ncsc4c3)nc2C1` (racemic) [Compound 27, 1-[2-(1,3-benzothiazole-6-sulfonyl)-2H,4H,5H,6H-pyrrolo[3,4-c]pyrazol-5-yl]-3-hydroxy-2-(pyridin-4-yl)propan-1-one], the activity was half-maximal at 39 nM (AC50).
Turning to `COC(C(=O)N1Cc2cn(S(=O)(=O)c3ccc(OC(F)F)cc3)nc2C1)c1ccccc1F` (racemic) [Compound 98, 1-{2-[4-(difluoromethoxy)benzenesulfonyl]-2H,4H,5H,6H-pyrrolo[3,4-c]pyrazol-5-yl}-2-(2-fluorophenyl)-2-methoxyethan-1-one], half-maximal activity (AC50) was put at 210 nM.
The molecule `O=C([C@H](CO)c1ccccc1)N1Cc2cn(S(=O)(=O)c3ccc4ncsc4c3)nc2C1` (single isomer, unassigned) [Compound 2, (2S)-1-[2-(1,3-benzothiazole-6-sulfonyl)-2H,4H,5H,6H-pyrrolo[3,4-c]pyrazol-5-yl]-3-hydroxy-2-phenylpropan-1-one or (2R)-1-[2-(1,3-benzothiazole-6-sulfonyl)-2H,4H,5H,6H-pyrrolo[3,4-c]pyrazol-5-yl]-3-hydroxy-2-phenylpropan-1-one] came in with an AC50 of 556 nM and a PKR % activation of 127%.
The matching figures for `O=C([C@@H](CO)c1ccccc1)N1Cc2cn(S(=O)(=O)c3ccc(OC(F)F)cc3)nc2C1` (single isomer, unassigned) [Compound 8, (2R)-1-{2-[4-(difluoromethoxy)benzenesulfonyl]-2H,4H,5H,6H-pyrrolo[3,4-c]pyrazol-5-yl}-3-hydroxy-2-phenylpropan-1-one, or (2S)-1-{2-[4-(difluoromethoxy)benzenesulfonyl]-2H,4H,5H,6H-pyrrolo[3,4-c]pyrazol-5-yl}-3-hydroxy-2-phenylpropan-1-one]: 1980 nM and 152%.
With `O=C(N1Cc2cn(S(=O)(=O)c3ccc4ncsc4c3)nc2C1)[C@]1(c2ccccn2)CCOC1` (single isomer, unassigned) [Compound 19, 6-({5-[(3S)-3-(pyridin-2-yl)oxolane-3-carbonyl]-2H,4H,5H,6H-pyrrolo[3,4-c]pyrazol-2-yl}sulfonyl)-1,3-benzothiazole or 6-({5-[(3R)-3-(pyridin-2-yl)oxolane-3-carbonyl]-2H,4H,5H,6H-pyrrolo[3,4-c]pyrazol-2-yl}sulfonyl)-1,3-benzothiazole], the AC50 was found to be 699 nM and the PKR % activation was 59%.
`Cc1ccc(C2(C(=O)N3Cc4cn(S(=O)(=O)c5ccc6ncsc6c5)nc4C3)CCOC2)cn1` (single isomer, unassigned) [Compound 31, 6-({5-[(3S)-3-(6-methylpyridin-3-yl)oxolane-3-carbonyl]-2H,4H,5H,6H-pyrrolo[3,4-c]pyrazol-2-yl}sulfonyl)-1,3-benzothiazole or 6-({5-[(3R)-3-(6-methylpyridin-3-yl)oxolane-3-carbonyl]-2H,4H,5H,6H-pyrrolo[3,4-c]pyrazol-2-yl}sulfonyl)-1,3-benzothiazole] displayed an AC50 of 173 nM.
Take `Cc1cccc([C@@]2(C(=O)N3Cc4cn(S(=O)(=O)c5ccc6ncsc6c5)nc4C3)CCOC2)n1` (single isomer, unassigned) [Compound 36, 6-({5-[(3S)-3-(6-methylpyridin-2-yl)oxolane-3-carbonyl]-2H,4H,5H,6H-pyrrolo[3,4-c]pyrazol-2-yl}sulfonyl)-1,3-benzothiazole or 6-({5-[(3R)-3-(6-methylpyridin-2-yl)oxolane-3-carbonyl]-2H,4H,5H,6H-pyrrolo[3,4-c]pyrazol-2-yl}sulfonyl)-1,3-benzothiazole]: the activity was half-maximal at 591 nM (AC50) and the PKR % activation was determined as 38%.
As to `CC(CO)(C(=O)N1Cc2cn(S(=O)(=O)c3ccc4ncsc4c3)nc2C1)c1ccccn1` (single isomer, unassigned) [Compound 43, (2R)-1-[2-(1,3-benzothiazole-6-sulfonyl)-2H,4H,5H,6H-pyrrolo[3,4-c]pyrazol-5-yl]-3-hydroxy-2-methyl-2-(pyridin-2-yl)propan-1-one or (2S)-1-[2-(1,3-benzothiazole-6-sulfonyl)-2H,4H,5H,6H-pyrrolo[3,4-c]pyrazol-5-yl]-3-hydroxy-2-methyl-2-(pyridin-2-yl)propan-1-one], half-maximal activity (AC50) was put at 75 nM. In other words, the double-digit nanomolar range.
Molecule `C[C@@](CO)(C(=O)N1Cc2cn(S(=O)(=O)c3ccc4ncsc4c3)nc2C1)c1ccccn1` (single isomer, unassigned) [Compound 44, (2R)-1-[2-(1,3-benzothiazole-6-sulfonyl)-2H,4H,5H,6H-pyrrolo[3,4-c]pyrazol-5-yl]-3-hydroxy-2-methyl-2-(pyridin-2-yl)propan-1-one or (2S)-1-[2-(1,3-benzothiazole-6-sulfonyl)-2H,4H,5H,6H-pyrrolo[3,4-c]pyrazol-5-yl]-3-hydroxy-2-methyl-2-(pyridin-2-yl)propan-1-one] showed an AC50 of 550 nM and a PKR % activation of 86%.
In turn, `O=C(N1Cc2cn(S(=O)(=O)c3ccc4c(c3)NCCO4)nc2C1)[C@]1(c2ccccn2)CCOC1` (single isomer, unassigned) [Compound 45, 6-({5-[(3S)-3-(pyridin-2-yl)oxolane-3-carbonyl]-2H,4H,5H,6H-pyrrolo[3,4-c]pyrazol-2-yl}sulfonyl)-3,4-dihydro-2H-1,4-benzoxazine or 6-({5-[(3R)-3-(pyridin-2-yl)oxolane-3-carbonyl]-2H,4H,5H,6H-pyrrolo[3,4-c]pyrazol-2-yl}sulfonyl)-3,4-dihydro-2H-1,4-benzoxazine] gave an AC50 of 15 nM and a PKR % activation of 94%.
On the same counts, the results for `O=C(N1Cc2cn(S(=O)(=O)c3ccc4c(c3)NCCO4)nc2C1)[C@]1(c2ccccn2)CCOC1` (single isomer, unassigned) [Compound 46, 6-({5-[(3S)-3-(pyridin-2-yl)oxolane-3-carbonyl]-2H,4H,5H,6H-pyrrolo[3,4-c]pyrazol-2-yl}sulfonyl)-3,4-dihydro-2H-1,4-benzoxazine or 6-({5-[(3R)-3-(pyridin-2-yl)oxolane-3-carbonyl]-2H,4H,5H,6H-pyrrolo[3,4-c]pyrazol-2-yl}sulfonyl)-3,4-dihydro-2H-1,4-benzoxazine] are 129 nM and 45%.
As for `Cc1ncccc1[C@@H](N)C(=O)N1Cc2cn(S(=O)(=O)c3ccc4ncsc4c3)nc2C1` (single isomer, unassigned) [Compound 47, (2R)-2-amino-1-[2-(1,3-benzothiazole-6-sulfonyl)-2H,4H,5H,6H-pyrrolo[3,4-c]pyrazol-5-yl]-2-(2-methylpyridin-3-yl)ethan-1-one or (2S)-2-amino-1-[2-(1,3-benzothiazole-6-sulfonyl)-2H,4H,5H,6H-pyrrolo[3,4-c]pyrazol-5-yl]-2-(2-methylpyridin-3-yl)ethan-1-one], the AC50 was 64 nM and the PKR % activation stood at 40%.
The matching figures for `C[C@@](CO)(C(=O)N1Cc2cn(S(=O)(=O)c3ccc4c(c3)OCCO4)nc2C1)c1ccccn1` (single isomer, unassigned) [Compound 48, (2R)-1-[2-(2,3-dihydro-1,4-benzodioxine-6-sulfonyl)-2H,4H,5H,6H-pyrrolo[3,4-c]pyrazol-5-yl]-3-hydroxy-2-methyl-2-(pyridin-2-yl)propan-1-one or (2S)-1-[2-(2,3-dihydro-1,4-benzodioxine-6-sulfonyl)-2H,4H,5H,6H-pyrrolo[3,4-c]pyrazol-5-yl]-3-hydroxy-2-methyl-2-(pyridin-2-yl)propan-1-one]: 223 nM and 46%.
The molecule `O=C(N1Cc2cn(S(=O)(=O)c3ccc4ncsc4c3)nc2C1)C1(c2ccccc2)CCCN1` (single isomer, unassigned) [Compound 54, 6-({5-[(2S)-2-phenylpyrrolidine-2-carbonyl]-2H,4H,5H,6H-pyrrolo[3,4-c]pyrazol-2-yl}sulfonyl)-1,3-benzothiazole or 6-({2-[(2R)-2-phenylpyrrolidine-2-carbonyl]-2H,4H,5H,6H-pyrrolo[3,4-c]pyrazol-2-yl}sulfonyl)-1,3-benzothiazole] returned a half-maximal activity concentration (AC50) of 4000 nM.

Source of the values: patent US20230159538A1, “PYRROLIDINE-PYRAZOLES AS PYRUVATE KINASE ACTIVATORS” (Global Blood Therapeutics, Inc., priority 2020, published 2023).
